Earlier results in paper PMC11133798, “Vosoritide treatment for children with hypochondroplasia: a phase 2 trial” (eClinicalMedicine, 2024).
No end group written: not given here.

What was measured:
[1] = system: children with hypochondroplasia; details: cited from earlier work
From the text: As there are no currently approved medications for hypochondroplasia, recombinant human growth hormone (rhGH) has been used off-label in patients with hypochondroplasia with variable efficacy. To date, there are no controlled trials of rhGH in children with hypochondroplasia. […] However, growth velocity slowed substantially after the first year resulting in a total increase in height ...

[2] = system: rat chondrosarcoma cell lines, NPR2 heterozygous knock out; details: ref 23 (protocol list); cited from earlier work
From the text: (§1) Our group identified pathogenic mutations in NPR2 in ~2% of ~400 patients presenting with short stature 22. The degree of short stature ...

[3] = system: rat chondrosarcoma cell lines, NPR2 homozygous knock out; details: ref 23 (protocol list); cited from earlier work
From the text: as §1

[4] = system: mice deficient in Nf1 in type II collagen producing cells; details: daily injections of CNP; ref 27 (protocol list); cited from earlier work
rat chondrosarcoma cells = details: CNP treatment; ref 36 (protocol list); cited from earlier work
From the text: Individuals with heterozygous defects in Aggrecan present with dominantly inherited short stature often with advanced bone ages and premature growth cessation 32,33.

[5] = system: mouse model with Braf mutation (p.Q241R); details: CNP administration; ref 28 (protocol list); cited from earlier work
L613V/+ mice = details: by 2 weeks of treatment; catch up began after 1 week; ref 26 (protocol list); cited from earlier work
From the text: They then proceeded to give these mice a MEK inhibitor.

[6] = meta-analysis of 7 studies, 113 children with hypochondroplasia

## rhGH: recombinant human growth hormone used off-label in hypochondroplasia
[1]; higher dose of rhGH, after three years of treatment
  Body disproportion: significant worsening of body disproportion
[1]; [6]
  Mean first year increase in height SDS: 0.41 SD
  Total increase in height after 3 years: 0.61 SD

## CNP: endogenous C-type natriuretic peptide, ligand of NPR-B (GLSKGCFGLKLDRIGSMSGLGC; ends and bridges not checked; cysteine pairing not given here; UniProt P23582 105-126, looked up)
[2]
  CNP concentration generating cGMP sufficient to activate downstream protein kinase G signaling: > 0.163 nM
[3]
  cGMP response to CNP: absolutely no
[4]
  ERK phosphorylation and stature: decreased ERK phosphorylation and corrected the short stature
Rat chondrosarcoma cells
  Extracellular matrix after FGF2 administration: rescue the loss of extracellular matrix
[5]
  Body length: increases in body length

## O=C(NOC[C@H](O)CO)c1ccc(F)c(F)c1Nc1ccc(I)cc1F [PD0325901]
L613V/+ mice
  Body length: the same length as untreated WT mice
